# Assay results: patent US20260250290A1 (BRISTOL-MYERS SQUIBB COMPANY, priority 2023, published 2026)
# Where a name gives a salt, the structure may show the parent alone.
# Target: T1, full length SGK1 (Homo sapiens, UniProt O00141)
# T1 construct: 125 μM full length SGK1 (Life Technologies Part #PR7358A); purchased Life Technologies PR7358A
# T1 sequence (O00141 1-431): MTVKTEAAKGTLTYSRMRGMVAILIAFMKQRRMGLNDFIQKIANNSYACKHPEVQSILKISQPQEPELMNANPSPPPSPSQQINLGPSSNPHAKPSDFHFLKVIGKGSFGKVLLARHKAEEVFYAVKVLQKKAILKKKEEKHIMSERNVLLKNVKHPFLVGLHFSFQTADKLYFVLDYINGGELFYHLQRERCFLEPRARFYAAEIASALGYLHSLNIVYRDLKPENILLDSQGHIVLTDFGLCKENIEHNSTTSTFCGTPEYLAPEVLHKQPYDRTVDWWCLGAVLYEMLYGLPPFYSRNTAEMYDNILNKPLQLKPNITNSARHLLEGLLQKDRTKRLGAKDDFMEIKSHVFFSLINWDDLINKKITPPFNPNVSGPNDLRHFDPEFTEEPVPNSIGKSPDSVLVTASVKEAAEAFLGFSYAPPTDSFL
# Assay: SGK1 inhibition Assay A (Caliper LabChip electrophoretic separation of fluorescent peptide substrate and phosphorylated product)
# Format: biochemical
# Details: Assay A; 20 μM ATP, 40 min incubation; read-out: SGK1 IC50
row,Molecule,IC50 [µM]
1,"CS(=O)(=O)c1ccc(-c2cc(N3CCCC(NC(=O)c4ccc(Cl)cc4)C3)c3c(N)ncnn23)cc1 (centres unmarked) [Example 5, N-(1-(4-amino-7-(4-(methylsulfonyl)phenyl)pyrrolo[2,1-f][1,2,4]triazin-5-yl)piperidin-3-yl)-4-chlorobenzamide, TFA]",0.073
2,"(R)-N-(1-(4-amino-7-12-(2-hydroxypropan-2-yl)pyrimidin-5-yl)pyrrolo[2,1-f][1,2,4]triazin-5-yl)piperidin-3-yl)-5-(difluoromethyl)thiophene-2-carboxamide [Example 519]",1.05
3,"COC(=O)N1CC=C(c2cc(N3CCC[C@@H](NC(=O)c4sc(Cl)cc4OCCN4CCOCC4)C3)c3c(N)ncnn23)C1 [Example 185, methyl (R)-3-(4-amino-5-(3-(5-chloro-3-(2-morpholinoethoxy)thiophene-2-carboxamido)piperidin-1-yl)pyrrolo[2,1-f][1,2,4]triazin-7-yl)-2,5-dihydro-1H-pyrrole-1-carboxylate, 2 TFA]",0.043
4,"CC(=O)N1CC=C(c2cc(N3CCC[C@@H](NC(=O)c4sc(C(F)F)cc4C4CCNC4)C3)c3c(N)ncnn23)C1 (single isomer, unassigned) [Example 398F]",0.13
5,"Cc1cc(C(=O)N[C@@H]2CCCN(c3cc(-c4ccc(S(C)(=O)=O)cc4)n4ncnc(N)c34)C2)cc(=O)[nH]1 [Example 40, (R)-N-(1-(4-amino-7-(4-(methylsulfonyl)phenyl)pyrrolo[2,1-f][1,2,4]triazin-5-yl)piperidin-3-yl)-6-methyl-2-oxo-1,2-d1Hydropyridine-4-carboxamide, TFA]",0.115
6,"COc1cnccc1C(=O)N[C@@H]1CCCN(c2cc(-c3ccc(S(C)(=O)=O)cc3)n3ncnc(N)c23)C1 [Example 68, (R)-N-(1-(4-amino-7-(4-(methylsulfonyl)phenyl)pyrrolo[2,1-f][1,2,4]triazin-5-yl)piperidin-3-yl)-3-methoxyisonicotinamide]",0.287
7,"CC(=O)N1CC=C(c2cc(N3CCC[C@@H](NC(=O)c4ccc(-c5ccncc5)cc4)C3)c3c(N)ncnn23)C1 [Example 462, (R)-N-(1-(7-(1-acetyl-2,5-dihydro-1H-pyrrol-3-yl)-4-aminopyrrolo[2,1-f][1,2,4]triazin-5-yl)piperidin-3-yl)-4-(pyridin-4-yl)benzamide]",0.026
8,"Cc1nn(C)cc1-c1cc(N2CCC[C@@H](NC(=O)c3ccc(Cl)s3)C2)c2c(N)ncnn12 [Example 217, (R)-N-(1-(4-amino-7-(1,3-dimethyl-1H-pyrazol-4-yl)pyrrolo[2,1-f][1,2,4]triazin-5-yl)piperidin-3-yl)-5-chlorothiophene-2-carboxamide]",0.062
9,"CC(=O)N1CC=C(c2cc(N3CCC[C@@H](NC(=O)c4cc(-c5cncnc5)n[nH]4)C3)c3c(N)ncnn23)C1 [Example 501, (R)-N-(1-(7-(1-acetyl-2,5-dihydro-1H-pyrrol-3-yl)-4-aminopyrrolo[2,1-f][1,2,4]triazin-5-yl)piperidin-3-yl)-3-(pyrimidin-5-yl)-1H-pyrazole-5-carboxamide]",0.292
10,"CS(=O)(=O)c1ccc(-c2cc(N3CCC[C@H](C(=O)Nc4nccs4)C3)c3c(N)ncnn23)cc1 [Example 103, (S)-1-(4-amino-7-(4-(methylsulfonyl)phenyl)pyrrolo[2,1-f][1,2,4]triazin-5-yl)-N-(thiazol-2-yl)piperidine-3-carboxamide]",0.726
11,"Cc1nc(C)c(C(=O)N[C@@H]2CCCN(c3cc(-c4ccnc(C(F)F)c4)n4ncnc(N)c34)C2)s1 [Example 485, (R)-N-(1-(4-amino-7-(2-(difluoromethyl)pyridin-4-yl)pyrrolo[2,1-f][1,2,4]triazin-5-yl)piperidin-3-yl)-2,4-dimethylthiazole-5-carboxamide]",0.026
12,"(R)-N-(1-(7-(1-acetyl-2,5-dihydro-1H-pyrrol-3-yl)-4-aminopyrrolo[2,1-f][1,2,4]triazin-5-yl)piperidin-3-yl)-5-chloro-3-(piperidin-4-yloxy)thiophene-2-carboxamide [Example 575]",0.001
13,"CC(=O)N1CC=C(c2cc(N3CCC[C@@H](NC(=O)c4sc5ccccc5c4OC4CN(C(=O)OC(C)(C)C)C4)C3)c3c(N)ncnn23)C1 [Example 673, tert-butyl (R)-3-((2-((1-(7-(1-acetyl-2,5-dihydro-1H-pyrrol-3-yl)-4-aminopyrrolo [2,1-f][1,2,4]triazin-5-yl)piperidin-3-yl)carbamoyl)benzo[b]thiophen-3-yl)oxy)azetidine-1-carboxylate]",0.096
14,"COCCNc1cccc(C(=O)N[C@@H]2CCCN(c3cc(C4=CCN(C(C)=O)C4)n4ncnc(N)c34)C2)n1 [Example 765, (R)-N-(1-(7-(1-acetyl-2,5-dihydro-1H-pyrrol-3-yl)-4-aminopyrrolo[2,1-f][1,2,4]triazin-5-yl)piperidin-3-yl)-6-((2-methoxyethyl)amino)picolinamide]",0.2

# More lines, now with the values ahead:
row,IC50 [µM],Molecule
1,0.002,"Cc1ccc(C(=O)N[C@@H]2CCCN(c3cc(-c4ccnc(F)c4)n4ncnc(N)c34)C2)s1 [Example 131, N-[(3R)-1-[4-amino-7-(2-fluoropyridin-4-yl)pyrrolo[2,1-f][1,2,4]triazin-5-yl]piperidin-3-yl]-5-methylthiophene-2-carboxamide]"
2,0.009,"CN(C)C(=O)COc1cc(Cl)sc1C(=O)N[C@@H]1CCCN(c2cc(-c3ccnc(C(F)F)c3)n3ncnc(N)c23)C1 [Example 339, (R)—N-(1-(4-amino-7-(2-(difluoromethyl)pyridin-4-yl)pyrrolo[2,1-f][1,2,4]triazin-5-yl)piperidin-3-yl)-5-chloro-3-(2-(dimethylamino)-2-oxoethoxy)thiophene-2-carboxamide]"
3,0.002,"Cc1ccc(C(=O)N[C@@H]2CCCN(c3cc(C4=CCN(S(C)(=O)=O)C4)n4ncnc(N)c34)C2)s1 [Example 124, (R)—N-(1-(4-amino-7-(1-(methylsulfonyl)-2,5-dihydro-1H-pyrrol-3-yl)pyrrolo[2,1-f][1,2,4]triazin-5-yl)piperidin-3-yl)-5-methylthiophene-2-carboxamide]"
4,0.008,"Nc1ncnn2c(-c3ccnc(C(F)F)c3)cc(N3CCC[C@@H](NC(=O)c4sc(Cl)cc4OC4CNC4)C3)c12 [Example 632, (R)-N-(1-(4-amino-7-(2-(difluoromethyl)pyridin-4-yl)pyrrolo[2,1-f][1,2,4]triazin-5-y1)piperidin-3-y1)-3-(azetidin-3-yloxy)-5-chlorothiophene-2-carboxamide]"
5,0.006,"CCn1cc(-c2cc(N3CCC[C@@H](NC(=O)c4ccc(Cl)s4)C3)c3c(N)ncnn23)ccc1=O [Example 532, (R)-N-(1-(4-amino-7-(1-ethyl-6-oxo-1,6-dihydropyridin-3-yl)pyrrolo[2,1-f][1,2,4]triazin-5-yl)piperidin-3-yl)-5-chlorothiophene-2-carboxamide]"
6,0.004,CN(C)CCOc1cc(C(F)F)sc1C(=O)N[C@@H]1CCCN(c2cc(-c3ccc(C#N)c(F)c3)n3ncnc(N)c23)C1 [Example 313]
7,0.015,"Nc1ncnn2c(-c3ccc(OC(F)F)cc3)cc(N3CCC[C@@H](NC(=O)c4ccc(Cl)s4)C3)c12 [Example 225, (R)-N-(1-(4-amino-7-(4-(difluoromethoxy)phenyl)pyrrolo [2,1-f][1,2,4]triazin-5-yl)piperidin-3-yl)-5-chlorothiophene-2-carboxamide, TFA]"
8,0.014,"Nc1ncnn2c(-c3ccnc(C(F)F)c3)cc(N3CCC[C@@H](NC(=O)c4sc(C(F)F)cc4OCCN4CCOCC4)C3)c12 [Example 337, (R)—N-(1-(4-amino-7-(2-(difluoromethyl)pyridin-4-yl)pyrrolo[2,1-f][1,2,4]triazin-5-yl)piperidin-3-yl)-5-(difluoromethyl)-3-(2-morpholinoethoxy)thiophene-2-carboxamide]"
9,0.005,"CS(=O)(=O)c1ccc(-c2cc(N3CCC[C@@H](NC(=O)c4ccns4)C3)c3c(N)ncnn23)cc1 [Example 41, (R)-N-(1-(4-amino-7-(4-(methylsulfonyl)phenyl)pyrrolo[2,1-f][1,2,4]triazin-5-yl)piperidin-3-yl)isothiazole-5-carboxamide, TFA]"
10,0.006,"CN(C)CCOc1cc(Cl)sc1C(=O)N[C@@H]1CCCN(c2cc(C3=CCN(C(=O)C4CCC4)C3)n3ncnc(N)c23)C1 [Example 178, (R)-N-(1-(4-amino-7-(1-(cyclobutanecarbonyl)-2,5-dihydro-1H-pyrrol-3-yl)pyrrolo[2,1-f][1,2,4]triazin-5-yl)piperidin-3-yl)-5-chloro-3-(2-(dimethylamino)ethoxy) thiophene-2-carboxamide, 2 TFA]"
11,0.019,"Cn1cc(-c2cc(N3CCC[C@@H](NC(=O)c4ccc(Cl)s4)C3)c3c(N)ncnn23)c(C2CC2)n1 [Example 203, (R)—N-(1-(4-amino-7-(3-cyclopropyl-1-methyl-1H-pyrazol-4-yl)pyrrolo[2,1-f][1,2,4]triazin-5-yl)piperidin-3-yl)-5-chlorothiophene-2-carboxamide, TFA]"
12,0.006,"COc1cc(-c2cc(N3CCC[C@@H](NC(=O)c4ccc(Cl)s4)C3)c3c(N)ncnn23)ccn1 [Example 215, (R)-N-(1-(4-amino-7-(2-methoxypyridin-4-yl)pyrrolo[2,1-f][1,2,4]triazin-5-yl)piperidin-3-yl)-5-chlorothiophene-2-carboxamide, TFA]"
